# Laboratory results published in patent publication US10981932B2, “Macrocyclic indole derivatives” (Bayer Aktiengesellschaft, priority 2016, dated 2021).
# Where two headings read alike, the source gives them in different places.
# Legend:
# MCL-1 = MCL-1 (Homo sapiens, UniProt Q07820); test: Protein-protein interaction assay MCL-1/Noxa BH3 peptide (MCL-1 assay), TR-FRET; type: binding; conditions: MBP-MCL-1 / Noxa BH3-derived peptide, median
# Procedure, shortened: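 Steady-state competition, MCL-1/Noxa BH3, TR-FRET readout; 1 nM MBP-MCL-1, 11-point dose series 0.1 nM–20 μM; overnight 4 °C equilibration; 4-parameter IC50.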
# SUDHL5 [1] = test: Induction of caspase-3/7 activity (Caspase-Glo 3/7), SUDHL5; type: cell-based; conditions: caspase-3/7 induction, SUDHL5 cells, 3 h treatment, median
# Procedure, shortened: (§1)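 A 3 h, 37 °C compound incubation precedes the Caspase-Glo 3/7 read. After subtracting medium-only signal, EC50s are fitted against the reference compound's maximal caspase induction.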
# SUDHL10 [2] = test: Induction of caspase-3/7 activity (Caspase-Glo 3/7), SUDHL10; type: cell-based; conditions: caspase-3/7 induction, SUDHL10 cells, 3 h treatment, median
# Procedure, shortened: as §1
# SUDHL5 [3] = test: Anti-proliferative effect (CellTiter-Glo, 72 h), SUDHL5; type: cell-based; conditions: SUDHL5 cells, antiproliferation, 72 h incubation, median, read-out: Antiproli SUDHL5 [M] (median)
# Procedure, shortened: (§2)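 Endpoint: CellTiter-Glo luminescence, 10 min after reagent addition. Treatment ran 72 h at 37 °C, humidified. Growth was referenced to a separately plated day 0 plate.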
# SUDHL10 [4] = test: Anti-proliferative effect (CellTiter-Glo, 72 h), SUDHL10; type: cell-based; conditions: SUDHL10 cells, antiproliferation, 72 h incubation, median, read-out: Antiproli SUDHL10 [M] (median)
# Procedure, shortened: as §2
# OPM2 = test: Anti-proliferative effect (CellTiter-Glo, 72 h), OPM2; type: cell-based; conditions: OPM2 cells, median, read-out: IC50 antiproliferation assay OPM2 [M] (median)
# Procedure, shortened: as §2
# A2780 = test: Anti-proliferative effect (CellTiter-Glo, 72 h), A2780; type: cell-based; conditions: A2780 cells, median, read-out: IC50 antiproliferation assay A2780 [M] (median)
# Procedure, shortened: as §2
# SUDHL5 [5] = test: Induction of cytotoxicity (CellTiter-Glo, 5 h), SUDHL5
# SUDHL10 [6] = test: Induction of cytotoxicity (CellTiter-Glo, 5 h), SUDHL10
# [7] = read-out: Cytotox SUDHL5 [M] (median), SUDHL5 cells, cytotoxicity induction, CellTiter-Glo, 5 h incubation, median
# [8] = read-out: Cytotox SUDHL10 [M] (median), SUDHL10 cells, cytotoxicity induction, CellTiter-Glo, 5 h incubation, median
# [9] = Homo sapiens, SU-DHL10, 5 h, read-out: Cytotox SUDHL10 [M] (median), SUDHL10 cells, cytotoxicity induction, CellTiter-Glo, 5 h incubation, median
# [10] = Homo sapiens, SU-DHL-5, 5 h, read-out: Cytotox SUDHL5 [M] (median), SUDHL5 cells, cytotoxicity induction, CellTiter-Glo, 5 h incubation, median
# Sequence of MCL-1 (Q07820 whole entry): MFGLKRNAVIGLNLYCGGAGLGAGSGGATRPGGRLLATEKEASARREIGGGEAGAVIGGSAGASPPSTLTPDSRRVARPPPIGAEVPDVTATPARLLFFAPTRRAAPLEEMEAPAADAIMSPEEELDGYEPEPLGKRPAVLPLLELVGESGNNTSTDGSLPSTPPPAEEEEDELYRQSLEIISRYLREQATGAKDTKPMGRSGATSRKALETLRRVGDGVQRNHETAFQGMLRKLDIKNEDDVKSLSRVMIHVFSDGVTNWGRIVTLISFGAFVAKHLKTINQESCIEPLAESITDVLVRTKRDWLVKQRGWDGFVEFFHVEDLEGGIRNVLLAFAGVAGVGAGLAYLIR
IC50 (MCL-1),EC50 (SUDHL5 [1]),EC50 (SUDHL10 [2]),IC50 (SUDHL5 [3]),IC50 (SUDHL10 [4]),IC50 (A2780),"IC50 (A2780; Homo sapiens, A2780, 72 h)","EC50 (SUDHL5 [1]; Homo sapiens, SU-DHL-5, 3 h)","EC50 (SUDHL10 [2]; Homo sapiens, SU-DHL10, 3 h)","IC50 (SUDHL5 [3]; Homo sapiens, SU-DHL-5, 72 h)","IC50 (SUDHL10 [4]; Homo sapiens, SU-DHL10, 72 h)",Compound,IC50 (OPM2),IC50 (SUDHL5 [5]; [7]),IC50 (SUDHL10 [6]; [8]),"IC50 (OPM2; Homo sapiens, OPM-2, 72 h)",IC50 (SUDHL10 [6]; [9]),IC50 (SUDHL5 [5]; [10])
0.0162 µM,10.2 µM,7.5 µM,1.36e-05 M,7.2e-06 M,2.48e-05 M,–,–,–,–,–,"Cn1nc(COc2ccc(S(C)(=O)=O)cc2)c2c1COCC=CCn1c(C(=O)O)c(CCCOc3cccc4ccccc34)c3cccc-2c31 (single isomer, unassigned) [Example 1-53, (E/Z)-1-methyl-3-{[4-(methylsulfonyl)phenoxy]methyl}-7-[3-(naphthalen-1-yloxy)propyl]-1,10,13,15-tetrahydropyrazolo[4′,3′:9,10][1,6]oxazacycloundecino[8,7,6-hi]indole-8-carboxylic Acid]",> 3.3e-05 M,6.49e-06 M,7.89e-06 M,–,–,–
0.167 µM,> 33 µM,> 33 µM,1.34e-05 M,9.09e-06 M,–,2.59e-05 M,–,–,–,–,"Cn1nc(COc2ccc(S(C)(=O)=O)cc2)c2c1COCCCCn1c(C(=O)O)c(CCCOc3cccc4ccccc34)c3cccc-2c31 (single isomer, unassigned) [Example 1-55, (−)-1-methyl-3-{[4-(methylsulfonyl)phenoxy]methyl}-7-[3-(naphthalen-1-yloxy)propyl]-1,10,11,12,13,15-hexahydropyrazolo[4′,3′:9,10][1,6]oxazacycloundecino[8,7,6-hi]indole-8-carboxylic Acid]",–,> 3.3e-05 M,–,> 3.3e-05 M,1.73e-05 M,–
0.00684 µM,5.7 µM,7.13 µM,> 3.3e-06 M,> 3.3e-05 M,> 3.3e-05 M,–,–,–,–,–,"Cn1nc(COc2ccc(S(C)(=O)=O)cc2)c2c1COCCCCn1c(C(=O)O)c(CCCOc3cccc4ccccc34)c3cccc-2c31 (single isomer, unassigned) [Example 1-56, (+)-1-methy-3-{[4-(methylsulfonyl)phenoxy]methyl}-7-[3-(naphthalen-1-yloxy)propyl]-1,10,11,12,13,15-hexahydropyrazolo[4′,3′:9,10][1,6]oxazacycloundecino[8,7,6-hi]indole-8-carboxylic Acid]",> 3.3e-05 M,5.72e-06 M,2.95e-05 M,–,–,–
0.0189 µM,–,–,–,–,–,1.31e-05 M,12.2 µM,17.3 µM,1.17e-05 M,7.32e-06 M,"CN1CCCn2c(C(=O)O)c(CCCOc3cccc4ccccc34)c3cccc(c32)-c2c(COc3ccc(C4CCOCC4)cc3)nn(C)c2C1 (single isomer, unassigned) [Example 1-58, (+)-7,9-dimethyl-1-[3-(naphthalen-1-yloxy)propyl]-11-{[4-(tetrahydro-2H-pyran-4-yl)phenoxy]methyl}-4,5,6,7,8,9-hexahydropyrazolo[3′,4′:7,8][1,5]diazecino[9,10,1-hi]indole-2-carboxylic Acid]",–,–,–,2.01e-05 M,2.14e-05 M,1.2e-05 M
0.0938 µM,17.9 µM,15.1 µM,1.06e-05 M,6.64e-06 M,1.16e-05 M,–,–,–,–,–,"CN1CCCn2c(C(=O)O)c(CCCOc3cccc4ccccc34)c3cccc(c32)-c2c(COc3ccc(C4CCOCC4)cc3)nn(C)c2C1 (single isomer, unassigned) [Example 1-59, (−)-7,9-dimethyl-1-[3-(naphthalen-1-yloxy)propyl]-11-{[4-(tetrahydro-2H-pyran-4-yl)phenoxy]methyl}-4,5,6,7,8,9-hexahydropyrazolo[3′,4′:7,8][1,5]diazecino[9,10,1-hi]indole-2-carboxylic Acid]",1.26e-05 M,1.24e-05 M,2.01e-05 M,–,–,–
0.67 µM,–,–,1.02e-05 M,3.36e-06 M,5.49e-06 M,–,14.5 µM,13.1 µM,–,–,"Cn1nc(COc2ccc(C3=CCOCC3)cc2)c2c1COCCCCn1c(C(=O)O)c(CCCOc3cccc4ccccc34)c3cccc-2c31 (single isomer, unassigned) [Example 1-62, 3-{[4-(3,6-dihydro-2H-pyran-4-yl)phenoxy]methyl}-1-methyl-7-[3-(naphthalen-1-yloxy)propyl]-1,10,11,12,13,15-hexahydropyrazolo[4′,3′:9,10][1,6]oxazacycloundecino[8,7,6-hi]indole-8-carboxylic Acid]",–,–,1.96e-05 M,7.6e-06 M,–,1.2e-05 M
0.00864 µM,7.66 µM,7.32 µM,3.37e-06 M,7.77e-06 M,1.11e-05 M,–,–,–,–,–,"Cn1nc(COc2ccc(C3=CCOCC3)cc2)c2c1COCCCCn1c(C(=O)O)c(CCCOc3cccc4ccccc34)c3cccc-2c31 (single isomer, unassigned) [Example 1-63, 3-{[4-(3,6-dihydro-2H-pyran-4-yl)phenoxy]methyl}-1-methyl-7-[3-(naphthalen-1-yloxy)propyl]-1,10,11,12,13,15-hexahydropyrazolo[4′,3′:9,10][1,6]oxazacycloundecino[8,7,6-hi]indole-8-carboxylic Acid]",1.18e-05 M,6.23e-06 M,7.04e-06 M,–,–,–
0.34 µM,16.1 µM,17.8 µM,9.8e-06 M,2.95e-06 M,6.25e-06 M,–,–,–,–,–,"COC1(c2ccc(OCc3nn(C)c4c3-c3cccc5c(CCCOc6cccc7ccccc67)c(C(=O)O)n(c35)CCCCOC4)cc2)CCOCC1 (single isomer, unassigned) [Example 1-67, 3-{[4-(4-methoxytetrahydro-2H-pyran-4-yl)phenoxy]methyl}-1-methyl-7-[3-(naphthalen-1-yloxy)propyl]-1,10,11,12,13,15-hexahydropyrazolo[4′,3′:9,10][1,6]oxazacycloundecino[8,7,6-hi]indole-8-carboxylic Acid]",1.19e-05 M,1.22e-05 M,2.29e-05 M,–,–,–
0.0126 µM,> 33 µM,> 33 µM,–,1.37e-05 M,1.85e-05 M,–,–,–,2.38e-05 M,–,"CC(C)OCc1nn(C)c2c1-c1cccc3c(CCCOc4cccc5ccccc45)c(C(=O)O)n(c13)CCCN(C)C2 (single isomer, unassigned) [Example 1-72, 7,9-dimethyl-1-[3-(naphthalen-1-yloxy)propyl]-1-[(propan-2-yloxy)methyl]-4,5,6,7,8,9-hexahydropyrazolo[3′,4′:7,8][1,5]diazecino[9,10,1-hi]indole-2-carboxylic Acid]",1.53e-05 M,8.53e-06 M,1.98e-05 M,–,–,–
0.00789 µM,–,6.35 µM,–,–,–,> 3.3e-05 M,6.03 µM,–,> 3.3e-05 M,> 3.3e-05 M,"CN1CCCn2c(C(=O)O)c(CCCOc3cccc4ccccc34)c3cccc(c32)-c2c(COc3ccc(N4CCOCC4)cc3)nn(C)c2C1 (single isomer, unassigned) [Example 1-88, (+)-7,9-dimethyl-11-{[4-(morpholin-4-yl)phenoxy]methyl}-1-[3-(naphthalen-1-yloxy)propyl]-4,5,6,7,8,9-hexahydropyrazolo[3′,4′:7,8][1,5]diazecino[9,10,1-hi]indole-2-carboxylic Acid]",–,5.9e-06 M,–,> 3.3e-05 M,6.19e-06 M,–
